Measurements reported in PubChem BioAssay AID328 (DTP/NCI, 2004).
Where “and” joins values, the source holds several entries; their conditions need not be identical. Identical values can stand only once. Toxic doses and inconclusive results are not listed. The calls were made as follows: active = survival T/C of 150% or more; inactive = T/C below 125% in these data.

System: BDF1 mice, P388 leukemia ip, median survival T/C
Assay: NCI In Vivo Anticancer Drug Screen. Data for tumor model P388 Leukemia (intraperitoneal) in B6D2F1 (BDF1) mice
Details: endpoint: median survival time, higher = longer survival
How it was run: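 In tumour-bearing mice, survival after compound treatment is set against the vehicle group and given as a quotient.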

[1] = dose: 100.0 mg/kg/injection, schedule: Q04DX003 (ip), vehicle: Klucel (hydroxypropylcellulose) (HPC)
[2] = dose: 100.0 mg/kg/injection, schedule: Q01DX009 (ip), vehicle: Klucel (hydroxypropylcellulose) (HPC)
[3] = dose: 200.0 mg/kg/injection, schedule: Q01DX009 (ip), vehicle: Klucel (hydroxypropylcellulose) (HPC)
[4] = dose: 200.0 mg/kg/injection, schedule: Q04DX003 (ip), vehicle: Klucel (hydroxypropylcellulose) (HPC)
[5] = dose: 400.0 mg/kg/injection, schedule: Q04DX003 (ip), vehicle: Klucel (hydroxypropylcellulose) (HPC)
[6] = dose: 25.0 mg/kg/injection, schedule: Q01DX009 (ip), vehicle: saline with Tween-80
[7] = dose: 100.0 mg/kg/injection, schedule: Q01DX009 (ip), vehicle: saline with Tween-80
[8] = dose: 100.0 mg/kg/injection, schedule: Q04DX003 (ip), vehicle: saline with Tween-80
[9] = dose: 200.0 mg/kg/injection, schedule: Q01DX009 (ip), vehicle: saline with Tween-80
[10] = dose: 200.0 mg/kg/injection, schedule: Q04DX003 (ip), vehicle: saline with Tween-80
[11] = dose: 400.0 mg/kg/injection, schedule: Q04DX003 (ip), vehicle: saline with Tween-80
[12] = dose: 6.25 mg/kg/injection, schedule: Q01DX009 (ip), vehicle: saline with Tween-80
[13] = dose: 12.5 mg/kg/injection, schedule: Q01DX009 (ip), vehicle: saline with Tween-80

Measured: T/C

CC(=O)Nc1ccc2c(Nc3ccc(NS(C)(=O)=O)cc3)c3ccccc3nc2c1
inactive: dose: 5.0 mg/kg/injection, schedule: Q01DX009 (ip), vehicle: saline 92 % of control | dose: 25.0 mg/kg/injection, schedule: Q04DX003 (ip), vehicle: saline 122 % of control | dose: 18.0 micrograms/kg/injection, schedule: Q04DX003 (ip), vehicle: saline 104 % of control | dose: 27.0 micrograms/kg/injection, schedule: Q04DX003 (ip), vehicle: saline 109 % of control | dose: 40.0 micrograms/kg/injection, schedule: Q04DX003 (ip), vehicle: saline 113 % of control
active: dose: 0.73 mg/kg/injection, schedule: Q01DX009 (ip), vehicle: saline 254 % of control | dose: 0.88 mg/kg/injection, schedule: Q04DX003 (ip), vehicle: saline 163 % of control | dose: 1.1 mg/kg/injection, schedule: Q01DX009 (ip), vehicle: saline 260 % of control | dose: 1.32 mg/kg/injection, schedule: Q04DX003 (ip), vehicle: saline 195 % of control | dose: 1.65 mg/kg/injection, schedule: Q01DX009 (ip), vehicle: saline 260 % of control | dose: 2.0 mg/kg/injection, schedule: Q04DX003 (ip), vehicle: saline 200 % of control | dose: 2.5 mg/kg/injection, schedule: Q01DX009 (ip), vehicle: saline 252 % of control and 262 % of control | dose: 3.0 mg/kg/injection, schedule: Q04DX003 (ip), vehicle: saline 195 % of control | dose: 5.56 mg/kg/injection, schedule: Q04DX003 (ip), vehicle: saline 250 % of control | dose: 5.6 mg/kg/injection, schedule: Q04DX003 (ip), vehicle: saline 236 % of control | dose: 8.3 mg/kg/injection, schedule: Q04DX003 (ip), vehicle: saline 281 % of control | dose: 8.33 mg/kg/injection, schedule: Q04DX003 (ip), vehicle: saline 250 % of control | dose: 12.5 mg/kg/injection, schedule: Q04DX003 (ip), vehicle: saline 250 % of control and 272 % of control and 281 % of control | dose: 18.7 mg/kg/injection, schedule: Q04DX003 (ip), vehicle: saline 250 % of control and 277 % of control

CC(Br)CNC(=O)c1ccc([N+](=O)[O-])cc1 (centres undefined)
inactive: dose: 25.0 mg/kg/injection, schedule: Q04DX003 (ip), vehicle: Klucel (hydroxypropylcellulose) (HPC) 109 % of control | dose: 50.0 mg/kg/injection, schedule: Q04DX003 (ip), vehicle: Klucel (hydroxypropylcellulose) (HPC) 109 % of control | [1] 100 % of control

CN1CCC(C(O)c2ccccc2)CC1 (centres undefined)
inactive: dose: 100.0 mg/kg/injection, schedule: Q01DX001 (ip), vehicle: Klucel (hydroxypropylcellulose) (HPC) 105 % of control | dose: 200.0 mg/kg/injection, schedule: Q01DX001 (ip), vehicle: Klucel (hydroxypropylcellulose) (HPC) 105 % of control

NC(=S)NN1C2CSC1CS2
inactive: dose: 22.5 mg/kg/injection, schedule: Q01DX009 (ip), vehicle: saline with Tween-80 100 % of control | dose: 45.0 mg/kg/injection, schedule: Q01DX009 (ip), vehicle: saline with Tween-80 110 % of control | dose: 90.0 mg/kg/injection, schedule: Q01DX009 (ip), vehicle: saline with Tween-80 108 % of control

COc1cc(/C=C/C(=O)O)ccc1OC(C)=O
inactive: dose: 100.0 mg/kg/injection, schedule: Q01DX001 (ip), vehicle: saline 100 % of control | dose: 200.0 mg/kg/injection, schedule: Q01DX001 (ip), vehicle: saline 100 % of control | dose: 400.0 mg/kg/injection, schedule: Q01DX001 (ip), vehicle: saline 100 % of control

CC(=O)C(O)N1C(=O)C=CC1=O (centres undefined)
inactive: dose: 0.31 mg/kg/injection, schedule: Q04DX003 (ip), vehicle: saline 95 % of control | dose: 0.62 mg/kg/injection, schedule: Q04DX003 (ip), vehicle: saline 100 % of control | dose: 1.25 mg/kg/injection, schedule: Q04DX003 (ip), vehicle: saline 100 % of control | dose: 2.5 mg/kg/injection, schedule: Q04DX003 (ip), vehicle: saline 91 % of control | dose: 5.0 mg/kg/injection, schedule: Q04DX003 (ip), vehicle: saline 91 % of control

COC(=O)Nc1nc2ccc(Br)cc2[nH]1
inactive: [2] 104 % of control | [1] 109 % of control | [3] 112 % of control | [4] 109 % of control | dose: 400.0 mg/kg/injection, schedule: Q01DX009 (ip), vehicle: Klucel (hydroxypropylcellulose) (HPC) 116 % of control | [5] 113 % of control

COc1ccc(CNCC(=O)OCc2ccccc2)cc1
inactive: [6] 92 % of control | dose: 50.0 mg/kg/injection, schedule: Q01DX009 (ip), vehicle: saline with Tween-80 101 % of control | [7] 88 % of control | [8] 111 % of control | [9] 102 % of control | [10] 109 % of control

C=C(C)C(=O)OC1C(C(C)CCCO)=C(CO)CC2OC(=O)C(=C)C21 (centres undefined)
active: dose: 32.0 mg/kg/injection, schedule: Q01DX009 (ip), vehicle: saline + alcohol 152 % of control
inactive: dose: 2.0 mg/kg/injection, schedule: Q01DX009 (ip), vehicle: saline + alcohol 104 % of control | dose: 4.0 mg/kg/injection, schedule: Q01DX009 (ip), vehicle: saline + alcohol 109 % of control | dose: 8.0 mg/kg/injection, schedule: Q01DX009 (ip), vehicle: saline + alcohol 114 % of control | dose: 16.0 mg/kg/injection, schedule: Q01DX009 (ip), vehicle: saline + alcohol 109 % of control

CC(=O)C1C(=O)C(=O)OC1C (centres undefined)
inactive: dose: 50.0 mg/kg/injection, schedule: Q01DX009 (ip), vehicle: Klucel (hydroxypropylcellulose) (HPC) 109 % of control | [2] 95 % of control | [8] 113 % of control | [3] 90 % of control | [10] 104 % of control

CC(=O)C1CCCC23CC(CC12)C(C)(C)C3OC=O (centres undefined)
inactive: [1] 90 % of control | [4] 100 % of control | [5] 109 % of control

COC1=CC(=O)c2c(O)cc(OC)c(O)c2C1=O
inactive: dose: 2.5 mg/kg/injection, schedule: Q01DX009 (ip), vehicle: saline with Tween-80 104 % of control | dose: 5.0 mg/kg/injection, schedule: Q01DX009 (ip), vehicle: saline with Tween-80 113 % of control

CCOC(=O)/C(C#N)=C/c1cc2c3c(c1)CCCN3CCC2
inactive: [8] 90 % of control | [10] 90 % of control | [11] 86 % of control

O=C(Nc1ncc([N+](=O)[O-])s1)c1cccc([N+](=O)[O-])c1
inactive: [12] 99 % of control | [13] 94 % of control | [6] 93 % of control

COc1ccc(OC)c(/C=C/C(=O)c2ccc(Cl)cc2)c1
inactive: [1] 104 % of control | [4] 95 % of control | [5] 104 % of control

O=C(C=C(C(F)(F)F)C(F)(F)F)c1cccc(Cl)c1
inactive: [12] 122 % of control | [13] 100 % of control

COc1cc(/C=N/NC(N)=S)cc(OC)c1OC
inactive: [7] 104 % of control | [8] 90 % of control | [9] 104 % of control | [10] 109 % of control | dose: 400.0 mg/kg/injection, schedule: Q01DX009 (ip), vehicle: saline with Tween-80 100 % of control | [11] 104 % of control

Cc1ccc(/C(CN2CCOCC2)=N\O)cc1
inactive: dose: 50.0 mg/kg/injection, schedule: Q01DX001 (ip), vehicle: saline sonified 105 % of control | dose: 100.0 mg/kg/injection, schedule: Q01DX001 (ip), vehicle: saline sonified 105 % of control | dose: 200.0 mg/kg/injection, schedule: Q01DX001 (ip), vehicle: saline sonified 105 % of control

CCCCCCCCCCSS(=O)(=O)O
inactive: dose: 25.0 mg/kg/injection, schedule: Q01DX001 (ip), vehicle: other 87 % of control | dose: 50.0 mg/kg/injection, schedule: Q01DX001 (ip), vehicle: other 95 % of control | dose: 100.0 mg/kg/injection, schedule: Q01DX001 (ip), vehicle: other 95 % of control

C=CCCCC[P+](c1ccccc1)(c1ccccc1)c1ccccc1
inactive: dose: 0.75 mg/kg/injection, schedule: Q01DX010 (ip), vehicle: saline 110 % of control | dose: 1.5 mg/kg/injection, schedule: Q01DX010 (ip), vehicle: saline 115 % of control and 120 % of control | dose: 12.0 mg/kg/injection, schedule: Q01DX010 (ip), vehicle: saline 110 % of control
active: dose: 6.0 mg/kg/injection, schedule: Q01DX010 (ip), vehicle: saline 152 % of control
